In EP2125859B1, “ESTRATRIENE DERIVATIVES AND THEIR USES AS 17BETA-HYDROXYSTEROID DEHYDROGENASE INHIBITORS” (Abbott Products GmbH, priority 2006, dated 2008):

Legend:
17β-HSD3 = target: T1, 17β-HSD3 (Homo sapiens, UniProt P37058); experiment: Inhibition of 17β-HSD3 in MCF-7 cell lines stably expressing the enzyme (HPLC, tritium labeled androstenedione); type: cell-based; settings: MCF7, MCF-7 cells expressing 17β-HSD3, androstenedione 2 nM
T1 construct: expressed in transfected cells; host or cells: MCF-7 cells stably expressing 17β-HSD3
T1 sequence (P37058 1-310): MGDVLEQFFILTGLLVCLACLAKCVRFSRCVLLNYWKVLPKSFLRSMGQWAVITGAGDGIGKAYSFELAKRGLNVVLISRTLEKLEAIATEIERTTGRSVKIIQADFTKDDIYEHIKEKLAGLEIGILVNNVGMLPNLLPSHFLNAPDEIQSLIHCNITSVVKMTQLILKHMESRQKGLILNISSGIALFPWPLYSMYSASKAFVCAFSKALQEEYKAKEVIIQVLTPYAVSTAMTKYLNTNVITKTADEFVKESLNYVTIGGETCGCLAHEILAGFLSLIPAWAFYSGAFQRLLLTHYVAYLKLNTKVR
Description: The compounds were screened in respect of 17β-HSD3 enzyme activity in vitro on established MCF-7 cell lines, each stably expressing the 17β-HSD3 enzyme. The interconversion of substrate by 17β-HSD3 and the 17β-HSD3 inhibiting activity of chemical compounds in these cell lines were detected by HPLC system.
Varying amounts of the test compounds were incubated in the growth medium of the 17β-HSD3 expressing cells together tritium labeled androstenedione (2 nM). The medium samples were removed after exact incubation time and the reaction is stopped by trichloroacetic acid (TCA). The samples were analyzed by HPLC-coupled flow scintillation analysis.
Conversion: The 17β-HSD3 inhibiting activity of an individual test compound was calculated by comparing the conversion of a control sample without any test compound (referred to as "Negative Control") to the (reduced) conversion of the test sample containing the particular compound to be tested (referred to as "Test Sample"). [formula]
Two concentrations of each compound were used. The number of the compound refers to the numbers indicated in the Experimental Section.
The values "% inhibition" were determined for exemplified compounds, and the results are summarized in table 5 (HSD 3). table 5: 17β-HSD3 inhibition values in % of selected compounds of formula I

[1] = target: T2, recombinant human 17β-HSD1 (Homo sapiens, UniProt P14061); experiment: Inhibition of recombinant human 17β-HSD1 (HPLC assay, conversion of 3H-estrone to estradiol); type: biochemical; settings: 0.5 h, 30 nM 3H-estrone, 1 mM NADPH, 30 min at RT, read-out: inhibition of rec. 17β-HSD1; for inhibition at 0.1 µM: 100 nM inhibitor; for inhibition at 1 µM: 1 µM inhibitor
T2 construct: made in house; host or cells: Sf9 insect cells (baculovirus, Bac to Bac Expression System)
T2 sequence (P14061 1-328): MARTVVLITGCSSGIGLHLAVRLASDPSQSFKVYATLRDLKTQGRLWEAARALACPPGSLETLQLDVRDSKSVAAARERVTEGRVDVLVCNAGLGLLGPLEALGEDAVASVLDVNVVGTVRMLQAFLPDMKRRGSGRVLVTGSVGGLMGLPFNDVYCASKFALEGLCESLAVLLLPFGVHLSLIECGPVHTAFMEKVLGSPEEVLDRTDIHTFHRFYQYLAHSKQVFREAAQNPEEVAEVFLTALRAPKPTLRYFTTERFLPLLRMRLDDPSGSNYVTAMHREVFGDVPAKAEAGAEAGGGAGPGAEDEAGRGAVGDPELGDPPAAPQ
Description: Inhibition of the 17β-hydroxysteroid dehydrogenase type 1 enzyme 17β-HSD1 purification: Recombinant baculovirus was generated by the "Bac to Bac Expression System" (Invitrogen). Recombinant bacmid was transfected to Sf9 insect cells using "Cellfectin Reagent" (Invitrogen). 60h later cells were harvested; the microsomal fraction was isolated as described by Puranen et al. (1994). Aliquots were stored frozen until determination of enzymatic activity.
Assay - Inhibition of recombinant human 17β-HSD1: Recombinant protein (0.1 µg/ml) was incubated in 20 mM KH2PO4 pH 7.4 with 30 nM 3H-estrone and 1 mM NADPH for 30 min at RT, in the presence of potential inhibitors at concentrations of 1 µM or 0.1 µM. Inhibitor stock solutions were prepared in DMSO. Final concentration of DMSO was adjusted to 1 % in all samples. The enzyme reaction was stopped by addition of 10 % trichloroacetic acid (final concentration). Samples were centrifuged in a microtiter plate at 4000 rpm for 10 min. Supernatants were applied to reverse phase HPLC on a Waters Symmetry C18 column, equipped with a Waters Sentry Guard column. Isocratic HPLC runs were performed at RT at a flow rate of 1 ml/min of acetonitrile:water 48:52 as running solvent. Radioactivity was monitored in the eluate by a Packard Flow Scintillation Analyzer. Total radioactivity for estrone and estradiol were determined in each sample and percent conversion of estrone to estradiol was calculated according to the following formula: [formula] [formula]
The values "% inhibition" were determined for exemplified compounds, and the results are summarized in table 4 (for 17β-HSD1). table 4: HSD 1 inhibition values in % of selected compounds of formula I

Row | SMILES | inhibition at 10 µM (17β-HSD3) [%] | inhibition at 0.1 µM [1] [%] | inhibition at 1 µM [1] [%] | inhibition at 1 µM (17β-HSD3) [%]
1 | CC(C)Cc1cn(CC[C@@H]2CC(=O)[C@@]3(C)CC[C@@H]4c5ccc(O)cc5CC[C@H]4[C@H]23)nn1 [Compound 12, 3-Hydroxy-15β-[2-(4-iso-butyl-[1,2,3]triazol-1-yl)-ethyl]-estra-1,3,5(10)-trien-17-one] | 37 | 86 | 92 | –
2 | CC(C)CCc1cn(CCC[C@@H]2CC(=O)[C@@]3(C)CC[C@@H]4c5ccc(O)cc5CC[C@H]4[C@H]23)nn1 [Compound 17, 3-Hydroxy-15β-{3-[4-(3-methyl-butyl)-[1,2,3]triazol-1-yl]-propyl}-estra-1,3,5(10)-trien-17-one] | 50 | 61 | 88 | 3
3 | C[C@]12CC[C@@H]3c4ccc(O)cc4CC[C@H]3[C@@H]1[C@H](CCn1cc(-c3ccccc3C(F)(F)F)nn1)CC2=O [Compound 19, 3-Hydroxy-15β-{2-[4-(2-trifluoromethyl-phenyl)-[1,2,3]triazol-1-yl]-ethyl}-estra-1,3,5(10)-trien-17-one] | 52 | 71 | 87 | 11
4 | C[C@]12CC[C@@H]3c4ccc(O)cc4CC[C@H]3[C@@H]1[C@@H](CCCn1cc(-c3cccc(O)c3)nn1)CC2=O [Compound 22, 3-Hydroxy-15-[3-(4-m-hydroxyphenyl-[1,2,3]triazol-1-yl)-propyl]-13-methyl-6,7,8,9,11,12,13,14,15,16-decahydro-cyclopenta[a]phenanthren-17-one] | – | 48 | 86 | 82
5 | CC(C)Cc1cn(CCC[C@@H]2CC(=O)[C@@]3(C)CC[C@@H]4c5ccc(O)cc5CC[C@H]4[C@H]23)nn1 [Compound 24, 3-Hydroxy-15β-[3-(4-iso-butyl-[1,2,3]triazol-1-yl)-propyl]-estra-1,3,5(10)-trien-17-one] | 64 | 52 | 85 | 24
6 | CCCCn1cc(CCCC2CC(=O)[C@@]3(C)CC[C@@H]4c5ccc(O)cc5CC[C@H]4[C@H]23)nn1 (stereo partly drawn) [Compound 300, 15-[3-(1-butyl-1H-1,2,3-triazol-4-yl)propyl]-3-hydroxyestra-1(10),2,4-trien-17-one] | 61 | 85 | 88 | 29
7 | C[C@]12CC[C@@H]3c4ccc(O)cc4CC[C@H]3[C@@H]1[C@H](CCCc1cn(-c3ccc(F)cc3F)nn1)CC2=O [Compound 301, 15β-{3-[1-(2,4-difluorophenyl)-1H-1,2,3-triazol-4-yl]propyl}-3-hydroxyestra-1(10),2,4-trien-17-one] | 57 | 82 | 88 | 24
8 | C[C@]12CC[C@@H]3c4ccc(O)cc4CC[C@H]3[C@@H]1[C@H](CCCc1cn(-c3ccc(F)cc3F)nn1)CC2(F)F [Compound 302, 15-{3-[1-(2,4-difluorophenyl)-1H-1,2,3-triazol-4-yl]propyl}-17,17-difluoroestra-1(10),2,4-trien-3-ol] | 70 | 88 | 96 | 13
